Source: patent publication US20130266663A1, “SOX9 INHIBITORS” (priority 2010, published 2013)

How the values were obtained:
SOX9 = SOX9 luciferase reporter assay in transfected astrocytes; type: cell-based, rat; details: cultured rat astrocytes, 24 h treatment
Source text: Cultures early after plating bear characteristics of immature and reactive astroctyes associated with acute damage. In this assay, primary astrocytes are transfected with a SOX9 reporter construct that consists of 4 repeats of the SOX9 binding site coupled to the mouse Col2a1 minimal promoter cloned upstream of a luciferase gene in the plasmid pGL4, as previously described in WO 2008/049226. After normalization for transfection efficiency, SOX9 activity can be monitored in transfected astrocytes by luciferase activity. Cells transfected with the SOX9 reporter construct were cultured in the presence and absence of potential inhibitors for 24 hours at which time the cells were lysed and luciferase levels measured. Compounds that reduced the levels of luciferase activity relative to control wells were considered as positive “hits”. In a secondary screen, false positives that cause a reduction in luciferase activity due to effects on cell viability, were eliminated using a cell viability assay (CellTiter-Flour—Promega). Subsequent to secondary screening, the “hits” were evaluated for their affect on SOX9 target gene expression by Q-PCR studies in primary astrocytes.
The utility of calmodulin antagonists (inhibitor) to decrease SOX9 target gene expression was evaluated in cultured rat astrocytes transfected with pGL4.1 4×48 Col2a1 prepared as described in Example 1. This plasmid contains 4-48 bp SOX9-binding sites from the Col2A1 enhancer which promote luciferase reporter gene expression in cells where SOX9 is active i.e. in the nucleus. The day after transfection, cells were treated for 24 h with inhibitor in concentrations as described below and in FIG. 5 before the luciferase assay was performed.
In this example, the potential of compounds that modulate calcium channels to modulate SOX9 activity is tested. The compounds were evaluated in cultured rat astrocytes transfected with pGL4.1 4×48 Col2a1. The day after transfection, cells were treated for 24 h with selected inhibitors before the luciferase assay was performed.
Antagonists to TRPV4 cation channel were tested to determine their ability to decrease the activity of SOX9 in astrocytes. The effect of TRPV4 antagonists on SOX9 function was evaluated in cultured rat astrocytes transfected with pGL4.1 4×48 Col2a1. The day after transfection, cells were treated for 24 h with 2-APB (100 μM) or ruthenium red (10 μM) before the luciferase assay was performed. […] With respect to SOX9 target genes, Q-PCR analysis of aged primary astrocyte cultures was performed to determine the impact of the TRPV4 antagonists on SOX9. […] Collagen IV is a significant scarring extracellular matrix produced by astrocytes and contributing to the inhibitory properties of the glial scar.

Collagen IV = assay: Western blotting of astrocyte culture protein extract probed with anti-collagen IV; type: cell-based, rat; details: 20 uM
SOX9 target genes = assay: Real-time PCR of SOX9 target genes after SCI, chlorpromazine i.p. once a day for 7 days; type: in vivo, rat
Description: In the context of rodent studies, administration of chlorpromazine was assessed using delivery by intraperitoneal injection (as described in Example 3) and intrathecal miniosmotic pump (as described in Example 5). In summary, three doses of chlorpromazine were given i.p. (2 mg/kg, 4 mg/kg and 6 mg/kg) once a day for 7 days. The rats were then sacrificed and realtime pCR analysis of SOX9, GFAP. XT1, link protein, collagen 2A, aggrecan and brevican was conducted on a spinal cord sample normalizing to 18S.

[1] = rat SCI, i.p. 2, 4 and 6 mg/kg once a day for 7 days, normalized to 18S

**Q.** What does the source list for `CN(C)CCCN1c2ccccc2Sc2ccc(Cl)cc21` [chlorpromazine]?
**A.** concentration at which the decrease in luciferase reporter activity is optimized / maximal (SOX9): 20 µM; luciferase reporter activity (SOX9 activity) (SOX9; various concentrations (FIG. 5)): apparent dose dependent response to limiting luciferase expression; level of collagen IV (Western blot) (Collagen IV): reduced level of collagen; impact on target gene expression (SOX9 target genes; at 2 and 4 mg/kg administration, i.p., 7 days): apparent impact on target gene expression; expression of Aggrecan (SOX9 target genes; [1]): reduces the expression; expression of Brevican (SOX9 target genes; [1]): reduces the expression; expression of GFAP (SOX9 target genes; [1]): reduces the expression; expression of HAPLN1 (SOX9 target genes; [1]): reduces the expression; expression of SOX9 (SOX9 target genes; [1]): reduces the expression; expression of XT-1 (SOX9 target genes; [1]): reduces the expression; expression of type 2A Collagen (SOX9 target genes; [1]): reduces the expression
